From paper PMC10584170, “Machine learning-based phenotypic imaging to characterise the targetable biology of Plasmodium falciparum male gametocytes for the development of transmission-blocking antimalarials” (PLOS Pathogens, 2023)

Assays:
[1] = system: P. falciparum male gametocytes; test: P. falciparum Dual Gamete Formation Assay (PfDGFA), male readout (exflagellation); format: cell-based, Plasmodium falciparum NF54; settings: for Average inhibition male (%): average of replicates; for % inhibition male (individual replicates) R1: replicate R1; for % inhibition male (individual replicates) R4: replicate R4; for Activity: hit = >50% inhibition in male or female readout in at least 3 replicates, 0 = no class assigned; for % inhibition male (individual replicates) R3: replicate R3
How it was run: (§1)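 Day-14 NF54 gametocytes were incubated with compound for 24 h at 37°C under 1% O2/3% CO2/96% N2. Gametogenesis was triggered with ookinete medium (0.1 μM xanthurenic acid) plus Cy3-anti-Pfs25, and exflagellation was imaged by brightfield after cooling to 4°C then 28°C. Females were imaged by Pfs25 fluorescence 24 h later at 28°C.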

[2] = system: P. falciparum female gametocytes; test: P. falciparum Dual Gamete Formation Assay (PfDGFA), female readout (Pfs25-positive female gametes); format: cell-based, Plasmodium falciparum NF54; settings: for Average inhibition female (%): average of replicates; for % inhibition female (individual replicates) R1: replicate R1; for % inhibition female (individual replicates) R3: replicate R3; for % inhibition female (individual replicates) R4: replicate R4
How it was run: as §1

[3] = 2µM, 24h preincubation with gametocytes prior to induction of gametogenesis
[4] = 2µM, 24h preincubation, hits selected on >50% inhibition in the male readout across replicates
[5] = PfDGFA at 2µM, 24h preincubation
[6] = 2µM, 24h preincubation, hits selected on >50% inhibition in the female readout across replicates
[7] = 2µM, 24h preincubation, number of replicates with >50% inhibition in the male readout
[8] = 2µM, 24h preincubation, number of replicates with >50% inhibition in the female readout
[9] = PfDGFA at 2µM, 24h preincubation with gametocytes
[10] = number of replicates with >50% inhibition in the male readout, 2µM
[11] = number of replicates with >50% inhibition in the female readout, 2µM
[12] = PfDGFA at 2µM, 24h preincubation with gametocytes prior to induction of gametogenesis

Compound | Average inhibition male (%) [1, 3] [%] | % inhibition male (individual replicates) R1 [1, 3] [%] | % inhibition male (individual replicates) R4 [1, 3] [%] | HitlevelM [1, 4] | Activity [1, 5] | Average inhibition female (%) [2, 3] [%] | % inhibition female (individual replicates) R1 [2, 3] [%] | % inhibition female (individual replicates) R3 [2, 3] [%] | % inhibition female (individual replicates) R4 [2, 3] [%] | HitlevelF [2, 6] | % inhibition male (individual replicates) R3 [1, 3] [%] | HitlevelM [1, 7] | HitlevelF [2, 8] | also measured
CN1CCC(NCc2ccc(-c3ccc(S(=O)(=O)NCc4ccccc4)s3)cc2)CC1.O=C(O)C(F)(F)F [TCMDC-132231] | 34.4 | 32.6 | 32.4 | 0 | 0 | 9.7 | 17.2 | 1.4 | 10.3 | 0 | – | – | – | –
O=C(O)C(F)(F)F.O=S(=O)(NCCN1CCCC1)c1ccc(-c2ccc(CNC3Cc4ccccc4C3)cc2)s1 [TCMDC-132234] | 17.3 | 15.3 | 34.9 | – | – | 29.4 | 25.4 | 5.2 | 45.9 | – | 1.0 | 0 | 0 | –
CN1CCC(NCc2ccc(-c3cccc(S(=O)(=O)NCc4ccccc4)c3)cc2)CC1.O=C(O)C(F)(F)F [TCMDC-132238] | 25.7 | 17.7 | 50.9 | 1 | 0 | 15.2 | 18.5 | -4.9 | 24.5 | 0 | -3.8 | – | – | –
O=C(O)C(F)(F)F.O=S(=O)(NCCN1CCCC1)c1cccc(-c2ccc(CNC3Cc4ccccc4C3)cc2)c1 [TCMDC-132241] | -1.0 | 15.7 | -2.5 | 0 | 0 | 16.9 | 23.8 | 3.4 | 2.0 | 0 | -7.3 | – | – | –
COc1ccc(CNC2CCN(C)CC2)cc1-c1ccc(S(=O)(=O)NCc2ccccc2)cc1.O=C(O)C(F)(F)F [TCMDC-132244] | – | – | – | – | – | – | – | – | – | – | – | – | – | Average inhibition male (%) [1, 9]: 63.1%; % inhibition male (individual replicates) R1 [1, 9]: 62.4%; % inhibition male (individual replicates) R3 [1, 9]: 51.6%; % inhibition male (individual replicates) R4 [1, 9]: 78.9%; HitlevelM [1, 10]: 4; Average inhibition female (%) [2, 9]: 25.2%; % inhibition female (individual replicates) R1 [2, 9]: 21.6%; % inhibition female (individual replicates) R3 [2, 9]: 8.8%; % inhibition female (individual replicates) R4 [2, 9]: 45.4%; HitlevelF [2, 11]: 0
COc1ccc(CNC2CCN(C)CC2)cc1-c1ccc(S(=O)(=O)NC2CCC2)cc1.O=C(O)C(F)(F)F [TCMDC-132245] | 51.4 | 59.0 | 60.2 | – | – | 10.6 | 7.8 | -17.0 | 30.9 | – | 27.2 | 3 | 0 | –
COc1ccc(CNC2Cc3ccccc3C2)cc1-c1ccc(OC)c(S(=O)(=O)NCCN2CCCC2)c1.O=C(O)C(F)(F)F [TCMDC-132251] | -9.5 | -12.6 | 8.2 | – | – | 36.3 | 26.7 | 26.1 | 31.1 | – | -24.0 | 0 | 1 | –
COc1ccc(CNC2CCN(C)CC2)cc1-c1ccc(S(=O)(=O)NC2CCC2)s1.O=C(O)C(F)(F)F [TCMDC-132254] | 56.3 | 57.2 | 49.8 | 2 | 0 | 16.7 | 16.7 | 22.1 | 14.8 | 0 | – | – | – | –
COc1ccc(CNC2CCN(C)CC2)cc1-c1cccc(S(=O)(=O)NCc2ccccc2)c1.O=C(O)C(F)(F)F [TCMDC-132267] | – | – | – | – | – | – | – | – | – | – | – | – | – | Average inhibition male (%) [1, 9]: 67.3%; % inhibition male (individual replicates) R1 [1, 9]: 62.4%; % inhibition male (individual replicates) R3 [1, 9]: 55.8%; % inhibition male (individual replicates) R4 [1, 9]: 79.6%; HitlevelM [1, 10]: 4; Average inhibition female (%) [2, 9]: 16.9%; % inhibition female (individual replicates) R1 [2, 9]: 27.9%; % inhibition female (individual replicates) R3 [2, 9]: 4.5%; % inhibition female (individual replicates) R4 [2, 9]: 10.9%; HitlevelF [2, 11]: 0
COc1ccc(CNC2Cc3ccccc3C2)cc1-c1cccc(S(=O)(=O)NCCN2CCCC2)c1.O=C(O)C(F)(F)F [TCMDC-132269] | 7.0 | 7.1 | 18.2 | – | – | 23.4 | 14.9 | -7.5 | 55.1 | – | -13.3 | 0 | 1 | –
COc1ccc(CNCc2ccc(F)cc2)cc1-c1ccc(S(=O)(=O)NCCN2CCCC2)cc1.O=C(O)C(F)(F)F [TCMDC-132294] | -4.3 | -26.4 | 1.5 | – | – | 26.6 | 28.2 | 29.3 | 24.2 | – | – | 0 | 0 | –
Cl.N[C@@H](CCNC1CCN(c2cccc(C(F)(F)F)c2)CC1)Cc1ccc(F)c(F)c1 [TCMDC-132301] | 53.1 | 61.1 | 79.6 | – | – | 52.8 | 47.6 | 42.6 | 73.6 | – | 44.2 | 2 | 1 | –
CC(O)C1CCCCN1C(=O)c1ccc(-c2ccc(-c3nc4ccccc4[nH]3)s2)cc1 (stereo not drawn) [TCMDC-132330] | – | – | – | – | – | – | – | – | – | – | – | – | – | % inhibition male (individual replicates) R1 [1, 12]: 10.5%; % inhibition male (individual replicates) R3 [1, 12]: 7.6%; % inhibition male (individual replicates) R4 [1, 12]: 19.6%; Average inhibition male (%) [1, 5]: 14.0%; % inhibition female (individual replicates) R1 [2, 12]: 7.4%; % inhibition female (individual replicates) R3 [2, 12]: -27.3%; % inhibition female (individual replicates) R4 [2, 12]: 14.9%; Average inhibition female (%) [2, 5]: -1.0%
